Laboratory results published in patent publication US20200085868A1, “Method For Treating Cancer” (China Medical University Hospital, priority 2018, published 2020).
“Also recorded” adds a separate entry of the source.

Tests used:
Format in all cases: cell-based
[1] = system: human pancreatic cancer cell line AsPC1; test: Tumor cell death (cytotoxicity), Annexin V-FITC and PI staining, flow cytometry; settings: group 1: chemotherapy drug alone, gemcitabine 20 μM
Description: (§1) First, the human breast cancer cell line MDA-MB-231, the human malignant brain tumor cell line DBTRG, the human pancreatic cancer cell line AsPC1 and the human ovarian cancer cell line SKOV3 are seeded in a 12-well plate at a density of 1×10^5 cells/well. The cells are subsequently incubated for 24 hours. Each type of the tumor cells is divided into six groups. In a control, the tumor cells are untreated. In a group 1, the tumor cells are treated with the chemotherapy drug. In a group 2, the tumor cells are treated with the parental NK-92 cell line. In a group 3, the tumor cells are treated with the parental NK-92 cell line and the chemotherapy drug. In the groups 2 and 3, the number of the parental NK-92 cell line treated is 1×10^5 cells. In a group 4, the tumor cells are treated with the chimeric antigen receptor expressing cell of Example 1. […] The treated cells are stained with Annexin V-FITC and propidium iodide (PI), and the apoptosis and the death of the tumor cells are detected by the flow cytometry. The sum of the percentage of cells stained with Annexin V-FITC and/or PI (that is the percentage of cells in the first quadrant, the second quadrant, and the fourth quadrant of the bivariate flow cytometry scatter plot) are calculated to obtain the cytotoxicity. The results of the cytotoxicity are counted after the three independent trials in each group. […]

[2] = system: HLA-G expression of the human pancreatic cancer cell line AsPC1; test: HLA-G expression of tumor cells treated with chemotherapy drug, flow cytometry; settings: AsPC1, gemcitabine 20 μM, 48 hours; control 13.18%
Description: (§2) The human ovarian cancer cell line SKOV3 is cultured in McCoy's 5A culture medium containing 10% FBS.
(§3) First, the human breast cancer cell line MDA-MB-231, the human malignant brain tumor cell line DBTRG, the human pancreatic cancer cell line AsPC1 and the human ovarian cancer cell line SKOV3 are seeded in a 6-well plate at a density of 2×10^5 cells/well. The cells are subsequently incubated for 24 hours. […] In a control, the tumor cells are untreated.
(§4) Please refer to FIGS. 2A, 2B, 2C, 2D and 2E, which are analytical results of flow cytometry showing a HLA-G expression of tumor cells treated with a chemotherapy drug. FIG. 2A is analytical result of flow cytometry of the human breast cancer cell line MDA-MB-231. FIG. 2B is analytical result of flow cytometry of the human malignant brain tumor cell line DBTRG. FIG. 2C is analytical result of flow cytometry of the human pancreatic cancer cell line AsPC1. FIG. 2D is analytical result of flow cytometry of the human ovarian cancer cell line SKOV3. FIG. 2E is a statistical chart of FIGS. 2A, 2B, 2C and 2D.

[3] = system: HLA-G expression of the human malignant brain tumor cell line DBTRG; test: as above; settings: temozolomide 80 μg/mL, 48 hours, control 14.01%
Description: (§5) To investigate effect of the treatment of the chemotherapy drug on the tumor cells, the tumor cells are treated with the chemotherapy drug, and then detecting the HLA-G expression level of the tumor cells.
(§6) The tumor cells used are human breast cancer cell line MDA-MB-231, human malignant brain tumor cell line DBTRG-05MG (hereinafter referred to as DBTRG), human pancreatic cancer cell line AsPC1, and human ovarian cancer cell line SKOV3. The tumor cell lines used are all purchased from the American Type Culture Collection (ATCC). The human breast cancer cell line MDA-MB-231 is a triple-negative breast cancer cell line, that is, the hormone receptor (ER, PR) and HER-2 receptor thereof are negative, and the human breast cancer cell line MDA-MB-231 is cultured in RPMI culture medium containing 10% fetal bovine serum (FBS). The human malignant brain tumor cell line DBTRG is cultured in DMEM culture medium containing 10% FBS. […]
(§7) First, the human breast cancer cell line MDA-MB-231, the human malignant brain tumor cell line DBTRG, the human pancreatic cancer cell line AsPC1 and the human ovarian cancer cell line SKOV3 are seeded in a 6-well plate at a density of 2×10^5 cells/well. […] Then, the HLA-G expression level of the tumor cells are detected by immunofluorescence staining assay and flow cytometry.

[4] = system: HLA-G expression level on the plasma membrane of the human ovarian cancer cell line SKOV3; test: HLA-G expression level of tumor cells treated with chemotherapy drug, immunofluorescence staining assay; settings: SKOV3, carboplatin 20 μM, 48 hours, vs untreated control
Description: as §5, §6, §7

[5] = system: human ovarian cancer cell line SKOV3; test: Tumor cell death (cytotoxicity), Annexin V-FITC and PI staining, flow cytometry; settings: group 1: chemotherapy drug alone, carboplatin 20 μM; control less than 10%
Description: as §1

[6] = system: HLA-G expression of the human ovarian cancer cell line SKOV3; test: HLA-G expression of tumor cells treated with chemotherapy drug, flow cytometry; settings: SKOV3, carboplatin 20 μM, 48 hours; control 14.69%
Description: as §2, §3, §4

[7] = system: HLA-G expression level on the plasma membrane of the human breast cancer cell line MDA-MB-231; test: HLA-G expression level of tumor cells treated with chemotherapy drug, immunofluorescence staining assay; settings: MDA-MB-231, doxorubicin 200 nM, 48 hours, vs untreated control
Description: as §5, §6, §7

[8] = system: human breast cancer cell line MDA-MB-231; test: Tumor cell death (cytotoxicity), Annexin V-FITC and PI staining, flow cytometry; settings: group 1: chemotherapy drug alone, doxorubicin 200 nM; control about 10%
Description: (§8) The cells are subsequently incubated for 24 hours. […] In a control, the tumor cells are untreated.
as §8, §8

[9] = system: HLA-G expression of the human breast cancer cell line MDA-MB-231; test: HLA-G expression of tumor cells treated with chemotherapy drug, flow cytometry; settings: MDA-MB-231, doxorubicin 200 nM, 48 hours; control 12.27%
Description: as §5, §6, §7

SMILES: Nc1ccn([C@@H]2O[C@H](CO)[C@@H](O)C2(F)F)c(=O)n1 [gemcitabine]
- death rate of AsPC1 [1]: increased, but there is no statistically significant difference compared to the control; also recorded: comparable to that of the control
- mean fluorescence intensity (MFI) of HLA-G [2]: 41.44%

SMILES: Cn1nnc2c(C(N)=O)ncn2c1=O [temozolomide]
- mean fluorescence intensity (MFI) of HLA-G [3]: 22.33%

SMILES: N.N.O=C([O-])C1(C(=O)[O-])CCC1.[Pt+2] [carboplatin]
- HLA-G expression level on the plasma membrane [4]: increase
- death rate of SKOV3 [5]: increased, but there is no statistically significant difference compared to the control; also recorded: comparable to that of the control
- mean fluorescence intensity (MFI) of HLA-G [6]: 38.58%

SMILES: COc1cccc2c1C(=O)c1c(O)c3c(c(O)c1C2=O)C[C@@](O)(C(=O)CO)C[C@@H]3O[C@H]1C[C@H](N)[C@H](O)[C@H](C)O1 [doxorubicin]
- HLA-G expression level on the plasma membrane [7]: increase
- death rate of MDA-MB-231 [8]: increased, but there is no statistically significant difference compared to the control
- mean fluorescence intensity (MFI) of HLA-G [9]: 64.45%
